How the values were obtained:
Assay type in all cases: binding
[1] = target: T1, DGKA (Diacylglycerol kinase alpha) (Rattus norvegicus, UniProt P51556); experiment: SILAC LC-MS ATP acyl phosphate probe competition, recombinant DGK-HEK293T lysates
T1 construct: expressed in transfected cells; host or cells: HEK293T (SILAC HEK293T for LC-MS)
Experimental: All other vectors were gifted to Dr. Kevin Lynch (University of Virginia, School of Medicine) by Dr. Kaoru Goto (Yamagata University, School of Medicine) and Dr. Fumio Sakane (Chiba University) and were kindly shared with us: pcDNA3-FLAG-DGKA (rat), pCMV-Tag2B-FLAG-DGKQ (human), pcDNA3-DGKE-3×Flag (human), and pCMV-SPORT6-HA-DGKZ (human). HEK293T cells were plated at a concentration of 400,000 cells in complete DMEM and grown to 50-60% confluency. A polyethyleneimine (PEI) stock solution was prepared (1 mg/mL, pH 7.4) and filter sterilized. Serum-free DMEM (600 μL) was mixed gently with 2.6 μg DNA and 20 μL of sterile PEI (1 mg/mL, pH 7.4) in a sterile microfuge tube. Mixtures were incubated for 30 min at 25° C. The mixture was then added drop-wise to each 10 cm^2 plate, rocked back and forth to mix, and placed back in the incubator. Cell pellets were harvested after two full days of growth, snap-frozen in liquid N2, and stored at −80° C. until use. Recombinant proteins were produced by transient transfection in SILAC HEK293T cells using the procedure described above, except that cells were plated at a concentration of 1×10^6 cells per 10 cm^2 plate and grown to ˜70% confluency prior to introducing transfection mixture.
Proteomes were diluted to 2 mg/ml in kinase buffer. The light and heavy proteomes (0.5 mg, 250 μL total reaction volume) were pre-treated with vehicle or compound, respectively (5 μL, DMSO (light) or 50× stock in DMSO (heavy)), mixed gently, and incubated at 25° C. for 30 min. […] After incubation, matched light and heavy proteomes were transferred and mixed in a 1:1 ratio in a two-dram vial containing 4:1:3 MeOH/CHCl3/H2O (2 mL MeOH, 500 AL CHCl3, 1.5 mL H2O) for extraction of proteins to remove excess probe, quickly vortexed, and centrifuged at 1,400×g for 3 min to pellet protein. Organic and aqueous layers were removed using a Pasteur pipette, and the protein pellet was transferred to a screw-top tube in 600 μL MeOH. A second extraction was performed by adding CHCl3 (150 μL) and H2O (600 μL) to each sample, vortexed, and centrifuged at 1,400×g for 3 min to pellet protein. Organic and aqueous layers were removed by pipetting. MeOH added to pellet (600 μL) and pellets were re-suspended by sonication (3×1 sec pulse, 20% amplitude) for a final extraction. Samples were then centrifuged at 17,000×g for 5 min to pellet protein and MeOH was removed by pipetting. […] To desalt the samples, each was transferred to a two-dram glass vial, and to the vial 4:1:2 MeOH/CHCl3/H2O (2 mL MeOH, 500 AL CHCl3, 1 mL H2O) was added. The vials were vortexed quickly, spun at 1.400×g for 3 min to pellet protein, and aqueous and organic layers were removed using a Pasteur pipette. The resulting protein pellet was transferred to a screw-top tube in 600 μL MeOH, and then CHCl3 (150 μL) and HO (600 μL) were added to extract protein a second time. The samples were vortexed quickly, centrifuged at 1,400×g to pellet protein, and the aqueous and organic layers were removed by pipetting. Resulting protein pellet was suspended in MeOH (600 μL) via sonication (3×1 sec pulse, 20% amplitude), centrifuged at 17,000×g for 5 min to pellet protein, and MeOH removed by pipetting. Protein pellets were then re-suspended in 25 mM ammonium bicarbonate (500 μL) and digested with 7.5 μg Trypsin/Lys-C(Promega, 15 μL, 0.5 μg/μL) for 3 h at 37° C. Avidin-agarose beads (Thermo Scientific Pierce, 100 AL aliquot per sample) were washed three times by adding 10 mL DPBS, centrifuged at 1,400×g for 1 min, and decanting. This wash step was repeated for a total of 3 times. Digested protein samples were mixed with washed avidin beads (100 μL) and brought to a volume of 5.5 mL with DPBS in a 15 mL conical and rotated for 1 h to enrich samples for the covalent desthiobiotin modification. The beads were washed with 25 mM ammonium bicarbonate (3× with 10 mL, centrifuge at 1,400×g for 3 min, decant) and then H2O (3× with 10 mL, centrifuge at 1,400×g for 3 min, decant).

[2] = target: T2, recombinant DGKα (Rattus norvegicus, UniProt P51556); experiment: Gel-based ATP acyl phosphate chemical proteomic assay; details: compounds 100 μM (ATP 1 mM; RF001 at indicated concentrations), 30 min; probe 10 μM
T2 construct: expressed in transfected cells; host or cells: HEK293T (SILAC HEK293T for LC-MS)
T2 sequence (P51556 whole entry): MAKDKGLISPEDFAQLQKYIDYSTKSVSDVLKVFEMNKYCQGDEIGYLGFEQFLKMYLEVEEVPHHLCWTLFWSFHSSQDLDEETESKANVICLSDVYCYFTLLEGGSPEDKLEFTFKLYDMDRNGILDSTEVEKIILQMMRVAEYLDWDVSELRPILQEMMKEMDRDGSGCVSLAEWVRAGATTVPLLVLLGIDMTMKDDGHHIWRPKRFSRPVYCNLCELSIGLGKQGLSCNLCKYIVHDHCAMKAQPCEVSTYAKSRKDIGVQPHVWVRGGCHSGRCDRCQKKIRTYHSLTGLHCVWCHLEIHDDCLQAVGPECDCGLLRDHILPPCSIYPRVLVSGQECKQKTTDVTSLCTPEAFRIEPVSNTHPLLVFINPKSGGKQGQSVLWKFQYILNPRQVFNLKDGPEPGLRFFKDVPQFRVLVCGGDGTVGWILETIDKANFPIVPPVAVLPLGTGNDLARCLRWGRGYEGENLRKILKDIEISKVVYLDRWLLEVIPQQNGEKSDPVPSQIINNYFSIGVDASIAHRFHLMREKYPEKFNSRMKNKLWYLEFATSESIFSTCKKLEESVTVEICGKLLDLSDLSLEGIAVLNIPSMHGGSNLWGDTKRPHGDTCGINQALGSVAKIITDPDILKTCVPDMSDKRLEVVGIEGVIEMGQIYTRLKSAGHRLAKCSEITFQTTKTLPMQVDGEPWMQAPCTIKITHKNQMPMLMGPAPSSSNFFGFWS
Experimental: Cell pellets were resuspended in kinase buffer (Dulbecco's PBS (DPBS, Hyclone), 20 mM MgCl2, EDTA-free protease inhibitors (Pierce)) and then lysed by sonication (3×1 sec pulse, 20% amplitude). The cell lysates were then subjected to centrifugation (100,000×g, 45 min at 4° C.) to isolate the cytosolic fraction in the supernatant and the membrane fraction as a pellet. The membrane pellet was resuspended in kinase buffer by sonication. […] The only exception was experiments involving DGKE; recombinant DGKE protein was most prominently expressed in the membrane fraction and so this fraction was utilized to study DGKE enzyme (see FIG. 8). Protein concentrations were measured using the Bio-Rad DC protein assay. Samples were stored at −80° C. until use.
Proteome concentration was adjusted to 2 mg/mL in kinase buffer. Proteomes were first pre-treated with compound (0.6 μL, 50× stock in DMSO) mixed with gentle flicking, and incubated for 30 min at 25° C. in a microfuge tube (30 μL reaction volume). […] Reactions were then quenched with 10 AL of 4×SDS-PAGE loading buffer. Protein samples (15 μL) were loaded onto 4-20% TGX Stain-Free Protein Midi Gel and resolved by SDS-PAGE at 150V for 55 min. Proteins were then transferred to a nitrocellulose blot by Bio-Rad Trans-Blot Turbo Transfer System (25V. 10 min) to enhance sensitivity. The nitrocellulose blot was then incubated in blocking solution (30 mL, 3% BSA in TBS-T) for 1 h at 25° C. with gentle shaking. The blot was then transferred immediately to antibody solution (30 mL, 5% BSA in ddH2O with 0.1% Tween20 and 1:3000 Streptavidin DyLight 550) and incubated for 2 h at 25° C. with gentle shaking. The blot was then rinsed 5 times for 5 min in TBS-T. and then transferred into ddH2O. The blot was then imaged by in-blot fluorescence scanning on a ChemiDoc MP Imaging System. Fluorescence intensity signals were normalized to total lane protein using the Bio-rad Stain Free imaging (Posch et al., 2013).
The percentage of enzyme activity remaining was determined by comparing integrated band intensities or luminescence of inhibitor—with DMSO-treated samples for gel-based chemical proteomic or ADP-glo assays, respectively. For both chemical proteomic and ADP-glo methods, nonlinear regression analysis was used to determine the IC50 values from a dose-response curve generated using GraphPad Prism. Data are shown as mean±s.e.m. Determination of significance was performed by one-way ANOVA. All statistical analyses were performed using GraphPad Prism.

[3] = target: T3, hDGKa C1 domain cysteines (Homo sapiens, UniProt P23743); experiment: JWB003 labeling competition in vitro
T3 construct: expressed in transfected cells; host or cells: HEK293T
T3 sequence (P23743 whole entry, the tested form may be a part): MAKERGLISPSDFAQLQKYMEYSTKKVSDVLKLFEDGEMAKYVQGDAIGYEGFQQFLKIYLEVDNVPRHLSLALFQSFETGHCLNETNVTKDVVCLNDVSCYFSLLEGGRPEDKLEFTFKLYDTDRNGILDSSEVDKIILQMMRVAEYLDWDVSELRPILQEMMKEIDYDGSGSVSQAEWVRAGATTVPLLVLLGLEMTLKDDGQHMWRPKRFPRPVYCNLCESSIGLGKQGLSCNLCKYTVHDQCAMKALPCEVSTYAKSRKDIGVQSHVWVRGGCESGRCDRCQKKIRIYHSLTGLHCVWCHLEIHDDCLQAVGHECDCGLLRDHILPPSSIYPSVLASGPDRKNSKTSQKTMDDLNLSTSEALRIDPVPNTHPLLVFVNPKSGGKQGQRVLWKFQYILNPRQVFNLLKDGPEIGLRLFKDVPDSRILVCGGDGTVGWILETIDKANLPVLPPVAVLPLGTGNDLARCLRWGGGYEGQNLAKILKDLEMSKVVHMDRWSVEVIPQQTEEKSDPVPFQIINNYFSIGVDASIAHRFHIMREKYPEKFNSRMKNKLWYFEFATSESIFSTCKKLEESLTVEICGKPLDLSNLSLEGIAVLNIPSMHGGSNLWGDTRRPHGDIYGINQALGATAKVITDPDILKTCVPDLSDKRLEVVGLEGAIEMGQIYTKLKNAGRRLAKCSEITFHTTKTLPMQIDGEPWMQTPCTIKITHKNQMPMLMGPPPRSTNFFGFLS
Experimental: • 1. HEK293T cells were harvested in cold PBS. • a. Cells were transferred to Eppendorf tube. • 2. Cells were lysed via tip sonicator. • 3. Cells were fractionated into membrane and soluble fraction. • a. 100,000×G for 45 minutes at 4 degree. • b. Supernatant was separated from cell pellet. • 4. Dilute proteomes to 1 mg/mL in PBS and aliquot appropriate reaction volume (49 μL for probe only; 48 μL for competition+probe) • 5. Cells were treated with 50× inhibitor. • a. Incubated for 1Hr at 37 degree. • 6. Cells were treated with 50× Probe (JWB003). • a. Incubated for 1Hr at 37 degree. • 7. Add 6 μL of master mix to each alkyne probe-labeled sample. • a. 1 μL of 1.25 mM Rh-N3 • b. 1 μL of fresh 50 mM TCEP • c. 3 μL of 1.7 mM TBTA stock • d. 1 μL of 50 mM CuSO4 • 8. Vortex samples. • 9. Incubate at room temperature for 1 hr • 10. Quench with 17 μL of 4×SDS-PAGE loading buffer+βME and vortex tubes. • 11. Analyze 30 μL samples by SDS-PAGE immediately. [B] Labeling HEK293T Cells to Determine Target Proteins of JWB003 in Live Cells (In Situ) • 1. Complete media was removed from HEK293T cells and replaced with serum free media containing JWB003 at the appropriate final concentration • a. Cells were placed in incubator for appropriate time at 37 degree 5% CO2 • 2. Cells were washed • a. 2× warm PBS • b. 2× cold PBS • c. Harvest cells in cold PBS • 3. Cells were transferred to Eppendorf tube • 4. Cells were lysed via tip sonicator • 5. Cells were fractionated into membrane and soluble fraction • a. 100,000×G for 45 minutes at 4 degrees • b. Supernatant was separated from cell pellet. • 6. Dilute proteomes to 1 mg/mL and aliquot appropriate reaction volume (50 μL) • 7. Add 6 μL of master mix to each alkyne probe-labeled sample. • a. 1 μL of 1.25 mM Rh-N3 • b. 1 μL of fresh 50 mM TCEP • c. 3 μL of 1.7 mM TBTA stock • d. 1 μL of 50 mM CuSO4 • 8. Vortex samples. • 9. Incubate at room temperature for 1 hr. • 10. Quench with 17 μL of 4×SDS-PAGE loading buffer+βME and vortex tubes. • 11. Analyze 30 μL samples by SDS-PAGE immediately. [C] […]

T1 sequence (P51556 whole entry): as the sequence (P51556 whole entry) above

Row | Structure (SMILES) | competition at probe-modified peptides from DAGKc and DAGKa subdomains of DGKα ([1]; ATP 1 mM) [%] | inhibition at 1000 µM ([1]; read-out: inhibition of probe labeling at DGKα C1 site (K237)) [%] | blockade of DGKα ATP probe labeling [2] | inhibition of JWB003 probe labeling of hDGKa [3]
1 | Nc1ncnc2c1ncn2[C@@H]1O[C@H](COP(=O)(O)OP(=O)(O)OP(=O)(O)O)[C@@H](O)[C@H]1O [ATP, adenosine triphosphate] | ~94 | ~58 | global reductions in fluorescent protein signals | 
2 | CCCCCCCCCCCCCC(=O)O[C@@H]1[C@@H](C)[C@@]2(O)[C@@H](C=C(CO)C[C@]3(O)C(=O)C(C)=C[C@@H]23)[C@@H]2C(C)(C)[C@]12OC(C)=O [PMA] |  |  |  | Probe labeling is inhibited
3 | NC(=O)CI [iodoacetamide] |  |  |  | labeling is inhibited

— patent US12643867B2, “Compositions and uses thereof” (University of Virginia Patent Foundation, priority 2017, dated 2026)
